Results: patent US20230055705A1, “SUBSTITUTED THIOPHENE CARBOXAMIDES AND DERIVATIVES THEREOF” (Bayer Aktiengesellschaft, priority 2019, published 2023)

Assays:
[1] = LogP by HPLC on reversed phase columns (EEC directive 79/831 Annex V.A8); assay type: physicochemical; conditions: for chromatographic logP: reversed phase HPLC columns
Experimental: In the above tables, measurement of LogP values was performed according to EEC directive 79/831 Annex V.A8 by HPLC (High Performance Liquid Chromatography) on reversed phase columns with the following methods: • ^[a]
Calibration was done with straight-chain alkan2-ones (with 3 to 16 carbon atoms) with known LogP values (measurement of LogP values using retention times with linear interpolation between successive alkanones). Lambda-max-values were determined using UV-spectra from 200 nm to 400 nm and the peak values of the chromatographic signals.

[2] = test system: Xanthomonas campestris pv. campestris; assay: In vivo preventive test on Xanthomonas campestris pv. campestris (black rot on cabbage); conditions: evaluated 8 or 10 days after inoculation, read-out: efficacy; for pest or weed control at 125 ppm: 125 ppm of active ingredient; for pest or weed control at 31 ppm: 31 ppm of active ingredient
Experimental: The tested active ingredients were prepared by homogenization in a mixture of acetone/Dimethyl sulfoxide/Tween®, and then diluted with water to obtain the desired active material concentration.
The young plants of cabbage were treated by spraying the active ingredient prepared as described above. Control plants were treated only with an aqueous solution of acetone/Dimethyl sulfoxide/Tween®.
After 72 hours, the plants were contaminated by spraying the leaves with an aqueous bacteria suspension of Xanthomonas campestris pv. campestris. The contaminated cabbage plants were incubated for 8 or 10 days at 27° C. at 95% relative humidity.
The test was evaluated 8 or 10 days after the inoculation. 0% means an efficacy which corresponds to that of the control plants while an efficacy of 100% means that no disease was observed. […]
Compounds CMP1, CMP2, CMP3 and CMP4 were tested in an in vivo preventive test on Xanthomonas campestris pv. campestris (black rot on cabbage) in the same conditions as described in Example H.

Uromyces appendiculatus = assay: In vivo preventive test on Uromyces appendiculatus (bean rust); conditions: 240 h, evaluated 10 days after inoculation, read-out: efficacy; for pest or weed control at 125 ppm: 125 ppm of active ingredient; for pest or weed control at 500 ppm: 500 ppm of active ingredient
Experimental: (§1) The tested active ingredients were prepared by homogenization in a mixture of acetone/Dimethyl sulfoxide/Tween®, and then diluted with water to obtain the desired active material concentration. The young plants of bean were treated by spraying the active ingredient prepared as described above. Control plants were treated only with an aqueous solution of acetone/Dimethyl sulfoxide/Tween®.
(§2) After 72 hours, the plants were contaminated by spraying the leaves with an aqueous suspension of Uromyces appendiculatus spores. The contaminated bean plants were incubated for 24 hours at 20° C. and at 100% relative humidity and then for 9 days at 20° C. and at 70-80% relative humidity. The test was evaluated 10 days after the inoculation. 0% means an efficacy which corresponds to that of the control plants while an efficacy of 100% means that no disease was observed.
Compounds CMP5 and CMP6 were tested in an in vivo preventive test on Uromyces appendiculatus (bean rust) in the same conditions as described in Example I.

[3] = test system: Colletotrichum lindemuthianum; assay: In vivo preventive test on Colletotrichum lindemuthianum (Antrachnose on bean); conditions: 144 h, inoculation 72 h after spraying, evaluated 6 days after inoculation, read-out: efficacy; for pest or weed control at 500 ppm: 500 ppm of active ingredient; for pest or weed control at 31 ppm: 31 ppm of active ingredient
Experimental: as §1
as §2, with “of Colletotrichum lindemuthianum” for “of Uromyces appendiculatus”, “for 5” for “for 9”, “at 90%” for “at 70-80%”, “evaluated 6” for “evaluated 10”
Compound CMP1 was tested in an in vivo preventive test on Colletotrichum lindemuthianum (Antrachnose on bean) in the same conditions as described in Example F.

Peronospora parasitica = assay: In vivo preventive test on Peronospora parasitica (Crucifer downy mildew); conditions: cabbage, evaluated 5 days after inoculation; for pest or weed control at 31 ppm / pest or weed control at 125 ppm / pest or weed control at 500 ppm: Hyaloperonospora parasitica, in Brassica oleracea, 120 h, read-out: efficacy; for pest or weed control at 31 ppm: 31 ppm of active ingredient; for pest or weed control at 125 ppm: 125 ppm of active ingredient
Experimental: as §1, with “cabbage” for “bean”
After 72 hours, the plants were contaminated by spraying the leaves with an aqueous suspension of Peronospora parasitica spores. The contaminated cabbage plants were incubated for 5 days at 20° C. and at 100% relative humidity.
The test was evaluated 5 days after the inoculation. 0% means an efficacy which corresponds to that of the control plants while an efficacy of 100% means that no disease was observed.
Compounds CMP2 and CMP3 were tested in an in vivo preventive test on Peronospora parasitica (Crucifer downy mildew) in the same conditions as described in Example G.

[4] = test system: salicylate responsive promoter sequence of the PR1 (pathogenesis-related protein I) gene (AT2G14610); assay: Induction of defense gene expression in Arabidopsis thaliana (PR1 promoter-GFP reporter plants); assay type: in vivo; conditions: 3rd day after spraying, mock treated leaves set as 1.00; for fold induction at 75 ppm / fold induction at 300 ppm: Arabidopsis thaliana, 72 h, read-out: relative fluorescence value; for fold induction at 75 ppm: 75 ppm of compound
Experimental: Arabidopsis thaliana reporter plants containing the coding sequence of a green fluorescent protein (GFP) linked to the salicylate responsive promoter sequence of the PR1 (pathogenesis-related protein I) gene (AT2G14610) were grown for five days and then sprayed with compounds. On the 3rd day after spraying, plant fluorescence was assessed with a MacroFluo instrument from Leica Microsystems (Wetzlar, Germany). Fluorescences were quantified with the Meta-Morph Microscopy Automation & Image Analysis Software (Molecular Devices, Sunnyvale, Calif., United States). Background fluorescence in mock treated leaves was set as 1.00.

[5] = test system: Pseudomonas syringae pv. tomato; assay: In vivo preventive test on Pseudomonas syringae pv. tomato (bacterial speck on tomato); conditions: evaluated 5 or 6 days after inoculation, read-out: efficacy; for pest or weed control at 31 ppm: 31 ppm of active ingredient; for pest or weed control at 500 ppm: 500 ppm of active ingredient
Experimental: as §1, with “tomato” for “bean”
After 72 hours, the plants were contaminated by spraying the leaves with an aqueous bacteria suspension of Pseudomonas syringae pv. tomato. The contaminated tomato plants were incubated for 4 days in saturated atmosphere at 22° C. day/20° C. night—70% HR and then for 1 or 2 days at 22° C. day/20° C. night at 70-80% relative humidity.
The test was evaluated 5 or 6 days after the inoculation. 0% means an efficacy which corresponds to that of the control plants while an efficacy of 100% means that no disease was observed.
Compounds CMP1 and CMP4 were tested in an in vivo preventive test on Pseudomonas syringae pv. tomato (bacterial speck on tomato) in the same conditions as described in Example J.

[6] = method [a]: LC-UV, in an acidic range, with 0.1% formic acid in water and acetonitrile as eluent (linear gradient from 10% to 95% acetonitrile)

Row | chromatographic logP [1, 6] | chromatographic logP ([1]; given in the preparation examples, method not marked) | LogP [1] | Compound | pest or weed control at 125 ppm [2] [%] | pest or weed control at 125 ppm (Uromyces appendiculatus) [%] | pest or weed control at 500 ppm (Uromyces appendiculatus) [%] | pest or weed control at 500 ppm [3] [%] | pest or weed control at 31 ppm (Peronospora parasitica) [%] | pest or weed control at 125 ppm (Peronospora parasitica) [%] | pest or weed control at 500 ppm (Peronospora parasitica; 500 ppm of active ingredient) [%] | fold induction at 75 ppm [4] | fold induction at 300 ppm ([4]; 300 ppm) | pest or weed control at 31 ppm [5] [%] | pest or weed control at 500 ppm [5] [%] | pest or weed control at 31 ppm [2] [%] | pest or weed control at 31 ppm [3] [%] | efficacy (Peronospora parasitica; 500 ppm of active ingredient) [%] | relative fluorescence value ([4]; 300 ppm)
1 | 4.23 |  |  | CCOC(=O)C(C)N(C(=O)c1sc(Cl)c(Cl)c1Cl)C1CC1 (stereo not drawn) [I.110] | 70 to 79 | 70 to 79 | 90 to 100 |  |  |  | 70 to 79 |  |  |  |  | 70 to 79 |  |  | 
2 | 4.62 |  |  | COC(=O)[C@H](C)NC(=S)c1sc(Cl)c(Cl)c1Cl [I.117] |  | 90 to 100 | 90 to 100 | 90 to 100 | 90 to 100 | 90 to 100 | 90 to 100 | > 2 | > 2 | 80 to 89 | 80 to 89 |  | 70 to 79 |  | 
3 |  |  | 5.21^[a] | CCOC(=O)[C@H](C)NC(=S)c1sc(Cl)c(Cl)c1Cl [I.118] |  |  |  |  |  |  |  |  |  |  |  |  |  | 70 | 
4 | 2.75 |  |  | CCNC(=O)[C@H](C)NC(=O)c1sc(Cl)c(Cl)c1Cl [I.120] |  | 90 to 100 | 90 to 100 | 90 to 100 | 90 to 100 | 90 to 100 | 90 to 100 | > 2 | > 2 |  |  | 80 to 89 | 70 to 79 |  | 

Continued, compound first:

Row | Compound | chromatographic logP [1, 6] | chromatographic logP ([1]; given in the preparation examples, method not marked) | LogP [1] | pest or weed control at 125 ppm [2] [%] | pest or weed control at 125 ppm (Uromyces appendiculatus) [%] | pest or weed control at 500 ppm (Uromyces appendiculatus) [%] | pest or weed control at 500 ppm [3] [%] | pest or weed control at 31 ppm (Peronospora parasitica) [%] | pest or weed control at 125 ppm (Peronospora parasitica) [%] | pest or weed control at 500 ppm (Peronospora parasitica; 500 ppm of active ingredient) [%] | fold induction at 75 ppm [4] | fold induction at 300 ppm ([4]; 300 ppm) | pest or weed control at 31 ppm [5] [%] | pest or weed control at 500 ppm [5] [%] | pest or weed control at 31 ppm [2] [%] | pest or weed control at 31 ppm [3] [%] | efficacy (Peronospora parasitica; 500 ppm of active ingredient) [%] | relative fluorescence value ([4]; 300 ppm)
5 | CNC(=O)[C@@H](NC(=O)c1sc(Cl)c(Cl)c1Cl)C(C)C [I.096] | 2.97 |  |  | 80 to 89 |  |  |  |  |  |  |  |  |  |  |  |  |  | 
6 | NC(=S)CNC(=O)c1sc(Cl)c(Cl)c1Cl [I.104, N-(2-amino-2-sulfanylideneethyl)-3,4,5-trichlorothiophene-2-carboxamide] | 2.53 | 2.53 |  |  | 70 to 79 | 90 to 100 | 80 to 89 | 90 to 100 | 90 to 100 | 90 to 100 | > 2 | > 2 | 70 to 79 | 80 to 89 |  |  |  | 
7 | CCOC(=O)C(C)N(OC)C(=O)c1sc(Cl)c(Cl)c1Cl (stereo not drawn) [I.108] | 4.15 |  |  |  | 90 to 100 | 90 to 100 | 90 to 100 | 90 to 100 | 90 to 100 | 90 to 100 | > 2 | > 2 |  | 80 to 89 | 90 to 100 |  |  | 
8 | O=C(O)c1ccccc1O [Salicylic acid, reference compound] |  |  |  |  |  |  |  |  |  |  |  |  |  |  |  |  |  | 2.70
